Test results as given in US20260262643A1, “HERBICIDAL BENZOXAZINES” (FMC CORPORATION, priority 2022, published 2026).

Key:
barnyardgrass [1] = test: Test D flooded paddy test; type: in vivo, Echinochloa crus-galli; details: 250 g ai/ha, applied to paddy water, visual rating after 13 to 14 days, scale 0 to 100 (0 no effect, 100 complete control)
In short: (§1)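 Compounds go straight into paddy water over 2-leaf plants in pots flooded to 3 cm. Greenhouse holding lasts 13 to 14 days. Injury is scored by eye against controls from 0 (none) to 100 (complete control).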

barnyardgrass [2] = test: Test C postemergence; type: in vivo, Echinochloa crusgalli; details: postemergence, 10 days
In short: (§2)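 Seeds sown in loam soil–sand blend received a directed preemergence soil spray of test chemical in non-phytotoxic solvent with surfactant; postemergence plants (2–10 cm, one- to two-leaf stage) were sprayed with the same formulation. Greenhouse-held 10 days, then visually rated for injury versus untreated controls, 0 (no effect) to 100 (complete control).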

pigweed, palmer [3] = test: Test C preemergence; type: in vivo, Amaranthus palmeri; details: preemergence, 0 to 100 scale (0 no effect, 100 complete control)
In short: as §2

kochia [4] = test: Test C preemergence; type: in vivo, Bassia scoparia; details: preemergence, 0 to 100 scale (0 no effect, 100 complete control)
In short: as §2

ryegrass, Italian [5] = test: Test C postemergence; type: in vivo, Lolium multiflorum; details: postemergence, 10 days
In short: as §2

oat, wild [6] = test: Test C postemergence; type: in vivo, Avena fatua; details: postemergence, 10 days
In short: as §2

corn [7] = test: Test C postemergence; type: in vivo, Zea mays; details: postemergence, 10 days
In short: as §2

green foxtail [8] = test: Test C postemergence; type: in vivo, Setaria viridis; details: postemergence, 10 days
In short: as §2

kochia [9] = test: Test C postemergence; type: in vivo, Bassia scoparia; details: postemergence, 10 days
In short: as §2

corn [10] = test: Test C preemergence; type: in vivo, Zea mays; details: preemergence, 0 to 100 scale (0 no effect, 100 complete control)
In short: as §2

oat, wild [11] = test: Test C preemergence; type: in vivo, Avena fatua; details: preemergence, 0 to 100 scale (0 no effect, 100 complete control)
In short: as §2

soybean [12] = test: Test C preemergence; type: in vivo, Glycine max; details: preemergence, 0 to 100 scale (0 no effect, 100 complete control)
In short: as §2

ragweed [13] = test: Test C preemergence; type: in vivo, Ambrosia artemisiifolia; details: preemergence, 0 to 100 scale (0 no effect, 100 complete control)
In short: as §2

wheat [14] = test: Test C preemergence; type: in vivo, Triticum aestivum; details: preemergence, 0 to 100 scale (0 no effect, 100 complete control)
In short: as §2

ryegrass, Italian [15] = test: Test C preemergence; type: in vivo, Lolium multiflorum; details: preemergence, 0 to 100 scale (0 no effect, 100 complete control)
In short: as §2

green foxtail [16] = test: Test C preemergence; type: in vivo, Setaria viridis; details: preemergence, 0 to 100 scale (0 no effect, 100 complete control)
In short: as §2

ragweed [17] = test: Test C postemergence; type: in vivo, Ambrosia artemisiifolia; details: postemergence, 10 days
In short: as §2

pigweed, palmer [18] = test: Test C postemergence; type: in vivo, Amaranthus palmeri; details: postemergence, 10 days
In short: as §2

soybean [19] = test: Test C postemergence; type: in vivo, Glycine max; details: postemergence, 10 days
In short: as §2

horseweed = test: Test C postemergence; type: in vivo, Erigeron canadensis; details: postemergence, 10 days
In short: as §2

ducksalad = test: Test D flooded paddy test; type: in vivo, Heteranthera limosa; details: 250 g ai/ha, applied to paddy water, visual rating after 13 to 14 days, scale 0 to 100 (0 no effect, 100 complete control)
In short: as §1

sedge, umbrella = test: Test D flooded paddy test; type: in vivo, Cyperus difformis; details: 250 g ai/ha, applied to paddy water, visual rating after 13 to 14 days, scale 0 to 100 (0 no effect, 100 complete control)
In short: as §1

blackgrass [20] = test: Test C preemergence; type: in vivo, Alopecurus myosuroides; details: preemergence, 0 to 100 scale (0 no effect, 100 complete control)
In short: as §2

galium = test: Test C postemergence; type: in vivo, Galium aparine; details: postemergence, 10 days
In short: as §2

blackgrass [21] = test: Test C postemergence; type: in vivo, Alopecurus myosuroides; details: postemergence, 10 days
In short: as §2

wheat [22] = test: Test C postemergence; type: in vivo, Triticum aestivum; details: postemergence, 10 days
In short: as §2

barnyardgrass [23] = test: Test C preemergence; type: in vivo, Echinochloa crusgalli; details: preemergence, 0 to 100 scale (0 no effect, 100 complete control)
In short: as §2

rice = test: Test D flooded paddy test; type: in vivo, Oryza sativa; details: 250 g ai/ha, applied to paddy water, visual rating after 13 to 14 days, scale 0 to 100 (0 no effect, 100 complete control)
In short: as §1

[24] = 125 g ai/ha, 0 to 100 scale, 0 no effect, 100 complete control
[25] = 500 g ai/ha, 0 to 100 scale (0 no effect, 100 complete control)

Cc1ccc(-n2cnc(C(C)C)n2)cc1C(=O)N1CC(C(F)(F)F)Oc2c(Cl)cccc21 (single isomer, unassigned) [Compound 291]
Plant response rating, Barnyardgrass (Flood) (barnyardgrass [1]): 40
Plant response rating, Barnyardgrass (barnyardgrass [2]; [24]): 30
Plant response rating, Barnyardgrass (barnyardgrass [2]; [25]): 90
Pigweed, Palmer plant response rating (pigweed, palmer [3]; 500 g ai/ha): 100
Pigweed, Palmer plant response rating (pigweed, palmer [3]; Test C, 125 g ai/ha): 100
Kochia plant response rating (kochia [4]; 500 g ai/ha): 100
Kochia plant response rating (kochia [4]; Test C, 125 g ai/ha): 80
Plant response rating, Ryegrass, Italian (ryegrass, Italian [5]; [24]): 70
Plant response rating, Ryegrass, Italian (ryegrass, Italian [5]; [25]): 80
Plant response rating, Oat, Wild (oat, wild [6]; [24]): 50
Plant response rating, Oat, Wild (oat, wild [6]; [25]): 80
Plant response rating, Corn (corn [7]; [24]): 20
Plant response rating, Corn (corn [7]; [25]): 80
Plant response rating, Foxtail, Green (green foxtail [8]; [24]): 30
Plant response rating, Foxtail, Green (green foxtail [8]; [25]): 90
Plant response rating, Kochia (kochia [9]; [24]): 90
Plant response rating, Kochia (kochia [9]; [25]): 100
Corn plant response rating (corn [10]; 500 g ai/ha): 50
Corn plant response rating (corn [10]; Test C, 125 g ai/ha): 30
Oat, Wild plant response rating (oat, wild [11]; 500 g ai/ha): 80
Oat, Wild plant response rating (oat, wild [11]; Test C, 125 g ai/ha): 60
Soybean plant response rating (soybean [12]; 500 g ai/ha): 100
Soybean plant response rating (soybean [12]; Test C, 125 g ai/ha): 90
Ragweed plant response rating (ragweed [13]; 500 g ai/ha): 60
Ragweed plant response rating (ragweed [13]; Test C, 125 g ai/ha): 40
Wheat plant response rating (wheat [14]; 500 g ai/ha): 50
Wheat plant response rating (wheat [14]; Test C, 125 g ai/ha): 30
Ryegrass, Italian plant response rating (ryegrass, Italian [15]; 500 g ai/ha): 100
Ryegrass, Italian plant response rating (ryegrass, Italian [15]; Test C, 125 g ai/ha): 90
Foxtail, Green plant response rating (green foxtail [16]; 500 g ai/ha): 100
Foxtail, Green plant response rating (green foxtail [16]; Test C, 125 g ai/ha): 100
Plant response rating, Ragweed (ragweed [17]; [24]): 70
Plant response rating, Ragweed (ragweed [17]; [25]): 80
Plant response rating, Pigweed, Palmer (pigweed, palmer [18]; [24]): 100
Plant response rating, Pigweed, Palmer (pigweed, palmer [18]; [25]): 100
Plant response rating, Soybean (soybean [19]; [24]): 90
Plant response rating, Soybean (soybean [19]; [25]): 100
Plant response rating, Horseweed (horseweed; [24]): 60
Plant response rating, Horseweed (horseweed; [25]): 60
Plant response rating, Ducksalad (Flood) (ducksalad): 45
Plant response rating, Sedge, Umbrella (Flood) (sedge, umbrella): 95
Blackgrass plant response rating (blackgrass [20]; 500 g ai/ha): 70
Blackgrass plant response rating (blackgrass [20]; Test C, 125 g ai/ha): 50
Plant response rating, Galium (galium; [24]): 100
Plant response rating, Galium (galium; [25]): 100
Plant response rating, Blackgrass (blackgrass [21]; [24]): 0
Plant response rating, Blackgrass (blackgrass [21]; [25]): 50
Plant response rating, Wheat (wheat [22]; [24]): 30
Plant response rating, Wheat (wheat [22]; [25]): 70
Barnyardgrass plant response rating (barnyardgrass [23]; 500 g ai/ha): 100
Barnyardgrass plant response rating (barnyardgrass [23]; Test C, 125 g ai/ha): 100
Plant response rating, Rice (Flood) (rice): 0
